Among the test systems are A549 NSCLC; UACC-257 melanoma; U251 CNS; COLO 205 colon; SW-620 colon; M14 melanoma; ACHN renal; NCI-H23 lung; MOLT-4 leukemia; SN12C renal.
What all share (assay): NCI-60 cell line screen, 48 h

Structures are written as SMILES.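 Five concentrations, 48 hours, 96-well plates. At the GI50, growth is halved. The concentration for full growth arrest is given as TGI.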 A value given as a limit tells only on which side of the number the result lay.

The values that follow come from PubChem BioAssay (NCI).

With `CC1CC(O)C(=O)C(O[C@@H]2C[C@@H]3CC[C@@H]4[C@H](CC[C@]5(C)C(C6=CC(=O)OC6)CC[C@]45O)[C@@]3(C=O)C[C@H]2O)O1` (some centres not stated), the TGI was less than 0.0199 µM in the assay with A549 NSCLC; 0.418 µM with UACC-257 melanoma; less than 0.0486 µM with U251 CNS; 0.491 µM in the assay with COLO 205 colon; 0.158 µM with SW-620 colon; 0.178 µM in the assay on M14 melanoma. In addition, the TGI stood at 0.0406 µM in the assay with ACHN renal, 0.0565 µM in the assay with NCI-H23 lung and 0.0991 µM with MOLT-4 leukemia.
Regarding `CCOCN1COCN(C)C1=O`, the TGI in the assay with A549 NSCLC, with UACC-257 melanoma, in the assay on U251 CNS, with SN12C renal, with COLO 205 colon and in the assay on SW-620 colon was greater than 100 µM each time. Besides, the TGI in the assay on M14 melanoma, in the assay on ACHN renal and in the assay with NCI-H23 lung was greater than 100 µM in each case.
With `CCC(C)(O)c1cnc(CC(C)C)c(=O)n1O` (configuration not stated), the TGI in the assay with A549 NSCLC, in the assay on UACC-257 melanoma, in the assay on U251 CNS, in the assay with SN12C renal, in the assay with COLO 205 colon and with SW-620 colon was greater than 100 µM each time. Further, the TGI in the assay with ACHN renal was greater than 100 µM; in the assay with NCI-H23 lung, greater than 100 µM; in the assay with MOLT-4 leukemia, 48.6 µM.
`O=C(Cc1nc2c3c(ccc2[nH]c1=O)C(=O)c1ccccc1C3=O)C(=O)Nc1ccccc1[N+](=O)[O-]`: the TGI with A549 NSCLC is greater than 100 µM; with UACC-257 melanoma it was 37 µM; in the assay with U251 CNS it was 32 µM; in the assay on COLO 205 colon, 33.5 µM; in the assay on SW-620 colon, 28.6 µM; with M14 melanoma, 34 µM. For the same molecule, the TGI with ACHN renal amounted to 33.9 µM; in the assay on NCI-H23 lung, 35.4 µM; in the assay with MOLT-4 leukemia, 23.2 µM.
Turning to `CC1(C)CN=C(NN=C(/C=C/c2ccc(C(F)(F)F)cc2)/C=C/c2ccc(C(F)(F)F)cc2)NC1`, the GI50 was 1.36 µM in the assay with A549 NSCLC; 1.56 µM with UACC-257 melanoma; 1.2 µM with U251 CNS; 1.46 µM with SN12C renal; 1.35 µM in the assay with COLO 205 colon; 1.14 µM with SW-620 colon. Moreover, the figures for the GI50 with M14 melanoma, in the assay on ACHN renal and in the assay with NCI-H23 lung were 1.78 µM, 1.19 µM and 1.56 µM, respectively. The TGI worked out at 2.91 µM in the assay on A549 NSCLC; 2.96 µM in the assay on UACC-257 melanoma; 2.47 µM in the assay on U251 CNS; 3.33 µM in the assay with SN12C renal; 2.85 µM in the assay with COLO 205 colon; 2.66 µM in the assay on SW-620 colon. Besides, the TGI is 3.5 µM with M14 melanoma, 2.48 µM with ACHN renal and 3.23 µM in the assay with NCI-H23 lung.
Regarding `N#CCCN1C/C(=C/c2ccc(Br)cc2)C(=O)/C(=C/c2ccc(Br)cc2)C1`, the GI50 was 2.38 µM in the assay on A549 NSCLC; 2.09 µM in the assay on UACC-257 melanoma; 0.409 µM with U251 CNS; 1.88 µM in the assay on SN12C renal; 1.57 µM in the assay on COLO 205 colon; 1.99 µM in the assay with M14 melanoma. For the same molecule, the GI50 in the assay with ACHN renal was 1.76 µM; with NCI-H23 lung, 2.64 µM; in the assay with MOLT-4 leukemia, 2.85 µM. Besides, the TGI in the assay on A549 NSCLC was found to be 26.3 µM; in the assay with UACC-257 melanoma, 5.32 µM; with U251 CNS, 1.58 µM; in the assay with SN12C renal, 4.6 µM; with COLO 205 colon, 2.97 µM; with M14 melanoma, 4.15 µM. Also, the TGI was 3.37 µM with ACHN renal, 7.58 µM in the assay with NCI-H23 lung and greater than 100 µM in the assay with MOLT-4 leukemia.
On to `O=C(O)c1cccc(COc2ccc([N+](=O)[O-])cc2Cl)c1`, for which the GI50 with A549 NSCLC, with U251 CNS, in the assay with COLO 205 colon, in the assay with SW-620 colon, in the assay on M14 melanoma and in the assay on ACHN renal was greater than 100 µM each time. For the same molecule, the TGI with A549 NSCLC, with U251 CNS, in the assay on COLO 205 colon, in the assay on SW-620 colon, in the assay on M14 melanoma and with ACHN renal was greater than 100 µM in each case.
Consider `COc1ccc(C(CC(=O)c2ccc3c(c2)OCO3)c2c(O)c3ccccc3oc2=O)cc1OC` (configuration not stated), for which the TGI in the assay with A549 NSCLC, with UACC-257 melanoma, in the assay on U251 CNS, with SN12C renal, with COLO 205 colon and in the assay with SW-620 colon was greater than 100 µM each time. Further, the TGI in the assay on ACHN renal, in the assay on NCI-H23 lung and in the assay on MOLT-4 leukemia was greater than 100 µM throughout.
Regarding `Cc1[nH]c2ccccc2c1C1Cc2ccccc2N1C(=O)C#Cc1ccc([N+](=O)[O-])cc1` (configuration not stated), the TGI in the assay with A549 NSCLC, in the assay on UACC-257 melanoma, with U251 CNS, in the assay on SN12C renal, in the assay on SW-620 colon and with M14 melanoma was greater than 100 µM in each case. The TGI with ACHN renal, with NCI-H23 lung and in the assay on MOLT-4 leukemia was greater than 100 µM each time.
Regarding `c1coc(-c2c3ccc(=[N+]4CCCCC4)cc-3oc3cc(N4CCCCC4)ccc23)c1`, the GI50 with UACC-257 melanoma is 0.0432 µM; in the assay on SN12C renal it was 0.0591 µM; with ACHN renal, 0.0327 µM; with MOLT-4 leukemia, 0.0463 µM. Moreover, the TGI worked out at 0.191 µM in the assay on UACC-257 melanoma, 0.278 µM in the assay on SN12C renal, 0.12 µM in the assay with ACHN renal and 0.903 µM in the assay on MOLT-4 leukemia.
For `COc1ccc(-c2nc(-c3cc(OC)cc(OC)c3)[nH]c2-c2ccc(OC)cc2)cc1`, the GI50 is 5.31 µM with A549 NSCLC; 23.8 µM in the assay on UACC-257 melanoma; greater than 100 µM in the assay with SN12C renal; 3.68 µM in the assay with COLO 205 colon; 54.1 µM in the assay on SW-620 colon; 8.37 µM in the assay on M14 melanoma. The values for the GI50 in the assay on ACHN renal, in the assay with NCI-H23 lung and in the assay on MOLT-4 leukemia were 5.56 µM, 4.72 µM and 2.8 µM, respectively. The TGI in the assay on A549 NSCLC, in the assay with UACC-257 melanoma, in the assay on SN12C renal, with COLO 205 colon, with SW-620 colon and with M14 melanoma was greater than 100 µM each time. In addition, the TGI in the assay with ACHN renal is greater than 100 µM; in the assay with NCI-H23 lung, greater than 100 µM; in the assay on MOLT-4 leukemia, 8.15 µM.
In the case of `COC(c1ccc(C(C)(C)C)cc1)(c1ccc(C(C)(C)C)cc1)c1ccc(C(C)(C)C)cc1`, the TGI in the assay on A549 NSCLC, with U251 CNS, in the assay with SN12C renal, in the assay with COLO 205 colon, with SW-620 colon and with M14 melanoma was greater than 100 µM each time. The TGI in the assay on ACHN renal, in the assay with NCI-H23 lung and in the assay with MOLT-4 leukemia was greater than 100 µM throughout.
